System: Setaria viridis (SETVI)
Assay: Herbicidal post-emergence action (D), 320 g/ha
Format: in vivo
Conditions: ca. 3 weeks
Procedure, shortened: (§1)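 Visual % herbicidal effect vs untreated controls (100% = dead, 0% = like control), rated ca. 3 weeks after post-emergence spray. Plants treated at single-leaf stage, 2 to 3 weeks after sowing in sandy loam; aqueous WP/EC spray, 0.5% additive, 600 l water/ha.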

For Fc1ccccc1-c1nc2ncsc2cc1I [Example I-188], the “herbicidal effect SETVI” value was 100%.

System: Amaranthus retroflexus (AMARE)
Assay: Herbicidal post-emergence action (D), 320 g/ha
Format: in vivo
Conditions: ca. 3 weeks
Procedure, shortened: as §1

CCc1cc2scnc2nc1-c1ccccc1C [Example I-093] and Fc1ccccc1-c1nc2ncsc2cc1I [Example I-188] are the same in “herbicidal effect AMARE” value: 90% for the first, 90% for the second.

Going from Cc1cc2scnc2nc1-c1ccc(F)cc1F [Example I-122] to Cc1cc2scnc2nc1-c1sccc1Cl [Example I-137], the “herbicidal effect AMARE” value rises from 80% to 90%.

System: Lolium rigidum (LOLRI)
Assay: Herbicidal post-emergence action (D), 320 g/ha
Format: in vivo
Conditions: ca. 3 weeks
Procedure, shortened: as §1

For CCc1cc2scnc2nc1-c1ccccc1C [Example I-093], the “herbicidal effect LOLRI” value was 80%.

System: Veronica persica (VERPE)
Assay: Herbicidal post-emergence action (D), 320 g/ha
Format: in vivo
Conditions: ca. 3 weeks
Procedure, shortened: as §1

CCc1cc2scnc2nc1-c1cccc(F)c1 [Example I-029] and CCc1cc2scnc2nc1-c1ccc(F)cc1F [Example I-030] are the same in “herbicidal effect VERPE” value: 90% for the first, 90% for the second.

CCc1cc2scnc2nc1-c1ccccc1C [Example I-093] and COc1ccccc1-c1nc2ncsc2cc1C [Example I-124] are the same in “herbicidal effect VERPE” value: 90% for the first, 90% for the second.

Cc1cc2scnc2nc1-c1ccc(F)cc1F [Example I-122] and Fc1ccccc1-c1nc2ncsc2cc1I [Example I-188] are the same in “herbicidal effect VERPE” value: 90% for the first, 90% for the second.

For Cc1cc2scnc2nc1-c1sccc1Cl [Example I-137], the “herbicidal effect VERPE” value was 80%.

System: Echinochloa crus-galli (ECHCG)
Assay: Herbicidal post-emergence action (D), 320 g/ha
Format: in vivo
Conditions: ca. 3 weeks
Procedure, shortened: as §1

First: CCc1cc2scnc2nc1-c1cccc(F)c1 [Example I-029]
Second: Cc1cc2scnc2nc1-c1ccc(F)cc1F [Example I-122]
The “herbicidal effect ECHCG” value of the first is higher: 90% for the first, 80% for the second.

First: COc1ccccc1-c1nc2ncsc2cc1C [Example I-124]
Second: Fc1ccccc1-c1nc2ncsc2cc1I [Example I-188]
The “herbicidal effect ECHCG” value of the first is lower: 80% for the first, 100% for the second.

Cc1cc2scnc2nc1-c1sccc1Cl [Example I-137] was tested, and the “herbicidal effect ECHCG” value was 90%.

System: Polygonum convolvulus (POLCO)
Assay: Herbicidal post-emergence action (D), 320 g/ha
Format: in vivo
Conditions: ca. 3 weeks
Procedure, shortened: as §1

CCc1cc2scnc2nc1-c1cccc(F)c1 [Example I-029] and CCc1cc2scnc2nc1-c1ccc(F)cc1F [Example I-030] are the same in “herbicidal effect POLCO” value: 90% for the first, 90% for the second.

First: Cc1cc2scnc2nc1-c1ccc(F)cc1F [Example I-122]
Second: Fc1ccccc1-c1nc2ncsc2cc1I [Example I-188]
The “herbicidal effect POLCO” value of the first is higher: 90% for the first, 80% for the second.

Cc1cc2scnc2nc1-c1sccc1Cl [Example I-137] was tested, and the “herbicidal effect POLCO” value was 80%.

System: Alopecurus myosuroides (ALOMY)
Assay: Herbicidal post-emergence action (D), 320 g/ha
Format: in vivo
Conditions: ca. 3 weeks
Procedure, shortened: as §1

Going from CCc1cc2scnc2nc1-c1cccc(F)c1 [Example I-029] to CCc1cc2scnc2nc1-c1ccc(F)cc1F [Example I-030], the “herbicidal effect ALOMY” value falls from 90% to 80%.

CCc1cc2scnc2nc1-c1ccccc1C [Example I-093] and COc1ccccc1-c1nc2ncsc2cc1C [Example I-124] are the same in “herbicidal effect ALOMY” value: 90% for the first, 90% for the second.

Cc1cc2scnc2nc1-c1ccc(F)cc1F [Example I-122] and Fc1ccccc1-c1nc2ncsc2cc1I [Example I-188] are the same in “herbicidal effect ALOMY” value: 90% for the first, 90% for the second.

For Cc1cc2scnc2nc1-c1sccc1Cl [Example I-137], the “herbicidal effect ALOMY” value was 90%.

System: Kochia scoparia (KCHSC; Bassia scoparia)
Assay: Herbicidal post-emergence action (B), 1280 g/ha
Format: in vivo
Conditions: not given
Procedure, shortened: (§2)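 Post-emergence spray, one-leaf stage; WP/EC formulation, aqueous, 0.5% additive, 600 L/ha water. Sandy loam, greenhouse, doubly sown pots. Visual % rating vs untreated control at ~3 weeks (100% = dead).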

CCc1cc2scnc2nc1-c1cccc(F)c1 [Example I-029] and CCc1cc2scnc2nc1-c1ccc(F)cc1F [Example I-030] are the same in “herbicidal effect KCHSC” value: 100% for the first, 100% for the second.

CCc1cc2scnc2nc1-c1ccccc1C [Example I-093] and COc1ccccc1-c1nc2ncsc2cc1C [Example I-124] are the same in “herbicidal effect KCHSC” value: 100% for the first, 100% for the second.

First: Cc1cc2scnc2nc1-c1ccc(F)cc1F [Example I-122]
Second: Fc1ccccc1-c1nc2ncsc2cc1I [Example I-188]
The “herbicidal effect KCHSC” value of the first is higher: 100% for the first, 90% for the second.

Cc1cc2scnc2nc1-c1sccc1Cl [Example I-137] was tested, and the “herbicidal effect KCHSC” value was 90%.

System: Setaria viridis (SETVI)
Assay: Herbicidal post-emergence action (B), 1280 g/ha
Format: in vivo
Conditions: rated visually after about 3 weeks vs untreated controls
Procedure, shortened: as §2

Going from CCc1cc2scnc2nc1-c1cccc(F)c1 [Example I-029] to CCc1cc2scnc2nc1-c1ccc(F)cc1F [Example I-030], the “herbicidal activity SETVI” value falls from 100% to 90%.

First: CCc1cc2scnc2nc1-c1ccccc1C [Example I-093]
Second: COc1ccccc1-c1nc2ncsc2cc1C [Example I-124]
The “herbicidal activity SETVI” value of the first is higher: 100% for the first, 90% for the second.

Cc1cc2scnc2nc1-c1ccc(F)cc1F [Example I-122] and Fc1ccccc1-c1nc2ncsc2cc1I [Example I-188] are the same in “herbicidal activity SETVI” value: 90% for the first, 90% for the second.

Cc1cc2scnc2nc1-c1sccc1Cl [Example I-137] was tested, and the “herbicidal activity SETVI” value was 100%.

System: Poa annua (POAAN)
Assay: Herbicidal post-emergence action (B), 1280 g/ha
Format: in vivo
Conditions: rated visually after about 3 weeks vs untreated controls
Procedure, shortened: as §2

CCc1cc2scnc2nc1-c1cccc(F)c1 [Example I-029] and CCc1cc2scnc2nc1-c1ccc(F)cc1F [Example I-030] are the same in “herbicidal activity POAAN” value: 100% for the first, 100% for the second.

CCc1cc2scnc2nc1-c1ccccc1C [Example I-093] and COc1ccccc1-c1nc2ncsc2cc1C [Example I-124] are the same in “herbicidal activity POAAN” value: 100% for the first, 100% for the second.

Going from Cc1cc2scnc2nc1-c1ccc(F)cc1F [Example I-122] to Fc1ccccc1-c1nc2ncsc2cc1I [Example I-188], the “herbicidal activity POAAN” value falls from 100% to 90%.

For Cc1cc2scnc2nc1-c1sccc1Cl [Example I-137], the “herbicidal activity POAAN” value was 100%.

System: Matricaria inodora (MATIN)
Assay: Herbicidal post-emergence action (B), 1280 g/ha
Format: in vivo
Conditions: rated visually after about 3 weeks vs untreated controls
Procedure, shortened: as §2

First: CCc1cc2scnc2nc1-c1ccccc1C [Example I-093]
Second: Fc1ccccc1-c1nc2ncsc2cc1I [Example I-188]
The “herbicidal activity MATIN” value of the first is higher: 100% for the first, 90% for the second.

Cc1cc2scnc2nc1-c1sccc1Cl [Example I-137] was tested, and the “herbicidal activity MATIN” value was 90%.

System: Alopecurus myosuroides (ALOMY)
Assay: Herbicidal post-emergence action (B), 1280 g/ha
Format: in vivo
Conditions: rated visually after about 3 weeks vs untreated controls
Procedure, shortened: as §2

Going from CCc1cc2scnc2nc1-c1cccc(F)c1 [Example I-029] to CCc1cc2scnc2nc1-c1ccc(F)cc1F [Example I-030], the “herbicidal activity ALOMY” value falls from 100% to 90%.

CCc1cc2scnc2nc1-c1ccccc1C [Example I-093] and COc1ccccc1-c1nc2ncsc2cc1C [Example I-124] are the same in “herbicidal activity ALOMY” value: 100% for the first, 100% for the second.

Cc1cc2scnc2nc1-c1ccc(F)cc1F [Example I-122] and Cc1cc2scnc2nc1-c1sccc1Cl [Example I-137] are the same in “herbicidal activity ALOMY” value: 100% for the first, 100% for the second.

System: Abutilon theophrasti (ABUTH)
Assay: Herbicidal post-emergence action (B), 1280 g/ha
Format: in vivo
Conditions: rated visually after about 3 weeks vs untreated controls
Procedure, shortened: as §2

CCc1cc2scnc2nc1-c1cccc(F)c1 [Example I-029] and CCc1cc2scnc2nc1-c1ccc(F)cc1F [Example I-030] are the same in “herbicidal activity ABUTH” value: 100% for the first, 100% for the second.

CCc1cc2scnc2nc1-c1ccccc1C [Example I-093] and COc1ccccc1-c1nc2ncsc2cc1C [Example I-124] are the same in “herbicidal activity ABUTH” value: 100% for the first, 100% for the second.

Cc1cc2scnc2nc1-c1ccc(F)cc1F [Example I-122] and Cc1cc2scnc2nc1-c1sccc1Cl [Example I-137] are the same in “herbicidal activity ABUTH” value: 90% for the first, 90% for the second.

System: Digitaria sanguinalis (DIGSA)
Assay: Herbicidal post-emergence action (D), 320 g/ha
Format: in vivo
Conditions: ca. 3 weeks
Excerpt: Seeds of mono- and dicotyledonous weed plants and crop plants were sown, in plastic or organic planting pots, in sandy loam, covered with soil and grown in a greenhouse under controlled growth conditions. 2 to 3 weeks after sowing, the test plants were sprayed in the single-leaf stage. The compounds according to the invention, formulated in form of wettable powders (WP) or as emulsifiable concentrates (EC), were sprayed onto the green plant parts as aqueous suspension or emulsion, with the addition of 0.5% of an additive, at an application rate of 600 l of water/ha (converted). The test plants were placed in the greenhouse for ca. 3 weeks under optimum growth conditions, and then the effect of the preparations was assessed visually in comparison with untreated controls (herbicidal effect in percent (%): 100% effect=plants have died off, 0% effect=as control plants).
Tables D1 to D13 below show the effects of selected compounds of the general formula (I) according to table 1 on various harmful plants and an application rate corresponding to 320 g/ha obtained by the experimental procedure mentioned above.

For Cc1cc2scnc2nc1-c1sccc1Cl [Example I-137], the “herbicidal effect DIGSA” value was 90%.

System: Avena fatua
Assay: Herbicidal pre-emergence action (C), 320 g/ha
Format: in vivo
Conditions: ca. 3 weeks
Procedure, shortened: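 Weed and crop seeds sown in sandy loam; WP or EC formulations applied pre-emergence to the soil surface as aqueous suspension/emulsion with 0.5% additive at 600 l water/ha. Greenhouse-grown under optimum conditions; damage visually scored after ca. 3 weeks versus untreated controls (0% = as control, 100% = plants dead).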

Compared with CCc1cc2scnc2nc1-c1ccccc1C [Example I-093], Fc1ccccc1-c1nc2ncsc2cc1I [Example I-188] is higher in “herbicidal effect AVEFA” value: 80% for the first, 100% for the second.

First: Cc1cc2scnc2nc1-c1ccc(F)cc1F [Example I-122]
Second: Cc1cc2scnc2nc1-c1sccc1Cl [Example I-137]
The “herbicidal effect AVEFA” value of the first is higher: 100% for the first, 80% for the second.

System: Viola tricolor (VIOTR)
Assay: Herbicidal pre-emergence action (C), 320 g/ha
Format: in vivo
Conditions: ca. 3 weeks
Procedure, shortened: (§3)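 Visual percent damage relative to untreated controls was scored about 3 weeks after treatment, where 100% means plants died off and 0% means like controls. Compounds, as WP or EC with 0.5% additive, were applied in 600 l water/ha to the soil covering sown seeds.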

COc1ccccc1-c1nc2ncsc2cc1C [Example I-124] and Cc1cc2scnc2nc1-c1sccc1Cl [Example I-137] are the same in “herbicidal effect VIOTR” value: 90% for the first, 90% for the second.

System: Matricaria inodora (MATIN)
Assay: Herbicidal pre-emergence action (C), 320 g/ha
Format: in vivo
Conditions: ca. 3 weeks
Procedure, shortened: as §3

Going from CCc1cc2scnc2nc1-c1ccccc1C [Example I-093] to COc1ccccc1-c1nc2ncsc2cc1C [Example I-124], the “herbicidal effect MATIN” value falls from 90% to 80%.

Cc1cc2scnc2nc1-c1sccc1Cl [Example I-137] was tested, and the “herbicidal effect MATIN” value was 90%.

System: Polygonum convolvulus (POLCO)
Assay: Herbicidal pre-emergence action (C), 320 g/ha
Format: in vivo
Conditions: ca. 3 weeks
Procedure, shortened: as §3

CCc1cc2scnc2nc1-c1ccc(F)cc1F [Example I-030] and Fc1ccccc1-c1nc2ncsc2cc1I [Example I-188] are the same in “herbicidal effect POLCO” value: 80% for the first, 80% for the second.

System: Abutilon theophrasti (ABUTH)
Assay: Herbicidal pre-emergence action (C), 320 g/ha
Format: in vivo
Conditions: ca. 3 weeks
Procedure, shortened: as §3

Fc1ccccc1-c1nc2ncsc2cc1I [Example I-188] was tested, and the “herbicidal effect ABUTH” value was 80%.

From patent US20230151025A1, “SUBSTITUTED THIAZOLOPYRIDINES, SALTS THEREOF AND THEIR USE AS HERBICIDALLY ACTIVE SUBSTANCES” (Bayer Aktiengesellschaft, priority 2020, published 2023)
